Where a name gives a salt, the structure may show the parent alone.
Key:
[1] = molecular target: T1, horseradish peroxidase (HRP) tagged delF508-CFTR (Homo sapiens, UniProt P13569, DEL508-508); test: Measurement of delF508-CFTR-HRP surface expression in CFBE41o- cells; assay type: cell-based; conditions: delF508-CFTR-HRP surface expression, CFBE41o- cells; for Emax: read-out: DelF508-CFTR-HRP Amax %; for EC50: read-out: DelF508-CFTR-HRP EC50;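 for DelF508-CFTR-HRP Amax %: percent efficacy relative to reference corrector lumacaftor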
T1 construct: expressed in transfected cells
Outline: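 CFBE41o- bronchial epithelial cells stably expressing delF508-CFTR with HRP in the fourth extracellular loop; expression induced 48h with 500 ng/mL doxycycline, then compounds added (top 10 μM, 10-point 3-fold series, ≤0.5% DMSO) for 24h at 37° C. Surface HRP measured by luminescence with cell-impermeant substrate; EC50 from logistic fit of triplicates, plate-normalized to lowest concentration; efficacy also relative to a reference corrector.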

[2] = molecular target: T2, delF508-CFTR (Homo sapiens, UniProt P13569, DEL508-508); test: Measurement of delF508-CFTR functional activity in primary human bronchial epithelial cells (HBECs) using Multi-Transepithelial Clamp Circuit (MTECC-24) assay; assay type: cell-based; conditions: primary CF HBECs; for MTECC24 CFHBEC- Amax %: test compound added 24h before assay plus potentiator, relative to reference combination (2 μM corrector + 0.5 μM potentiator); for EC50: test compound added 24h before assay, in the presence of potentiator, mean of at least two replicates, read-out: MTECC24 CFHBEC- EC50
T2 construct: functional activity of the CFTR channel (Chloride ion transport) in patient derived primary human bronchial epithelial cells; host or cells: patient-derived primary human bronchial epithelial cells (delF508-CFTR)
Outline: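 Patient-derived primary delF508-CFTR HBECs, differentiated at air-liquid interface ~2 weeks, treated basolaterally with compound for 24 h, then apical and basolateral compound in HEPES pH 7.4 assay medium. Equivalent short-circuit current (Ieq) recorded on MTECC-24 with sequential amiloride, forskolin, potentiator and INH-172; normalized to 0.1% DMSO, EC50 from curve fit.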

T1 sequence (P13569 with tags, fused parts or gaps DEL508-508): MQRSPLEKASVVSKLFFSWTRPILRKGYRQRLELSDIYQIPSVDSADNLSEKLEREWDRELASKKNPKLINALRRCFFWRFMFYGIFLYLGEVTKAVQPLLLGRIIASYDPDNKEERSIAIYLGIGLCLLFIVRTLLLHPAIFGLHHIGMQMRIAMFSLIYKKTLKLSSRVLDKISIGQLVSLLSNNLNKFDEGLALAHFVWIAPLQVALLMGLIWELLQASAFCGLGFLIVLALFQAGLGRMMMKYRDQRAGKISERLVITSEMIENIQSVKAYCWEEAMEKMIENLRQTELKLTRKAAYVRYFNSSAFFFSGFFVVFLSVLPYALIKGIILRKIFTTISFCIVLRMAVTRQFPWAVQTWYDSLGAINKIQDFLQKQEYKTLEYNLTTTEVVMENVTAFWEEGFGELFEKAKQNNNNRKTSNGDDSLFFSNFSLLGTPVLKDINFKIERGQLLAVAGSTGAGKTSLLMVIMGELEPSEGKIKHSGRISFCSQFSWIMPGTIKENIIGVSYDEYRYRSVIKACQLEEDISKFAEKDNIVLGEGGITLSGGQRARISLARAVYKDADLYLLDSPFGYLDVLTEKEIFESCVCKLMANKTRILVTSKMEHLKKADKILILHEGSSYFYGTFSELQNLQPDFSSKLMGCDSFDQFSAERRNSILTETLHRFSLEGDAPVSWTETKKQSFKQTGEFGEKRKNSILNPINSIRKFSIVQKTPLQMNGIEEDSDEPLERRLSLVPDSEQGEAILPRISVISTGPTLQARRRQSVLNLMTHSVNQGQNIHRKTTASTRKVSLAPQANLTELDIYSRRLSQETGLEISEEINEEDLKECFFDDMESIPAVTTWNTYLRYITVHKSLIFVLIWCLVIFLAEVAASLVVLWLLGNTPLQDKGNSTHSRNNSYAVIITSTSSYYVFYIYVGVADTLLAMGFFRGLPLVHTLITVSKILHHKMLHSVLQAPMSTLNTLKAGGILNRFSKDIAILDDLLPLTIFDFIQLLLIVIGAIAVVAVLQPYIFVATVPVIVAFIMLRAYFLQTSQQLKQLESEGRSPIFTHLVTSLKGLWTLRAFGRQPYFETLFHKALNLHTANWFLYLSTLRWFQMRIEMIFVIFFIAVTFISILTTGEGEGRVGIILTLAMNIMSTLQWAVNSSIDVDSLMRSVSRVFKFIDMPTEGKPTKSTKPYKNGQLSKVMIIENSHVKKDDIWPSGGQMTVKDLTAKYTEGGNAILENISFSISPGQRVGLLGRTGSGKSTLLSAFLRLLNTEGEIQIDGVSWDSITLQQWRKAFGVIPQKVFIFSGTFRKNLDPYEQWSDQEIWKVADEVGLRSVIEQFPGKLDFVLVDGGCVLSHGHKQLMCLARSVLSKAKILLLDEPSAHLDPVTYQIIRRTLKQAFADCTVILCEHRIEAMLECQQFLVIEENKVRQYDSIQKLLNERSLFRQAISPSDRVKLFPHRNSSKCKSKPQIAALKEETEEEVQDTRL
T2 sequence (P13569 with tags, fused parts or gaps DEL508-508): as above

With `Cc1ccccc1-c1nc(NS(=O)(=O)c2cccc(N3CC4C(N)C4C3)n2)ccc1C(F)(F)F` (stereo not drawn) [Example 107, 6-(6-amino-3-azabicyclo[3.1.0]hexan-3-yl)-N-(6-(o-tolyl)-5-(trifluoromethyl)pyridin-2-yl)pyridine-2-sulfonamide Hydrochloride] the Emax [1] was 756%, the EC50 [1] was 1990 nM and the “MTECC24 CFHBEC- Amax %” value [2] was 72.2%. The EC50 [2] was 111 nM.
`Cc1ccccc1-c1nc(NS(=O)(=O)c2cccc(N3CCC(N)CC3)n2)ccc1C(F)(F)F` [Example 108, 6-(4-aminopiperidin-1-yl)-N-(6-(o-tolyl)-5-(trifluoromethyl)pyridin-2-yl)pyridine-2-sulfonamide Hydrochloride] was tested, and the Emax [1] was 336%, the EC50 [1] was 4070 nM and the “MTECC24 CFHBEC- Amax %” value [2] was 61.4%. The EC50 [2] was 54.9 nM.
In the case of `CNC1CCN(c2cccc(S(=O)(=O)Nc3ccc(C(F)(F)F)c(-c4ccccc4C)n3)n2)CC1` [Example 109, 6-(4-(methylamino)piperidin-1-yl)-N-(6-(o-tolyl)-5-(trifluoromethyl)pyridin-2-yl)pyridine-2-sulfonamide Hydrochloride], the Emax [1] is reported as 332%, the EC50 [1] is reported as 2680 nM and the “MTECC24 CFHBEC- Amax %” value [2] is reported as 84.9%. For the same molecule, the EC50 [2] was 170 nM.
`Cc1ccccc1-c1nc(NS(=O)(=O)c2cccc(N3CCC(C)(N)CC3)n2)ccc1C(F)(F)F` [Example 110, 6-(4-amino-4-methylpiperidin-1-yl)-N-(6-(o-tolyl)-5-(trifluoromethyl)pyridin-2-yl)pyridine-2-sulfonamide Hydrochloride] was tested, and the Emax [1] was 372%, the EC50 [1] was 2800 nM and the “MTECC24 CFHBEC- Amax %” value [2] was 65.6%. The EC50 [2] was 28 nM.
In the case of `Cc1ccccc1-c1nc(NS(=O)(=O)c2cccc(NC3CCNCC3)n2)ccc1C(F)(F)F` [Example 112, 6-(piperidin-4-ylamino)-N-(6-(o-tolyl)-5-(trifluoromethyl)pyridin-2-yl)pyridine-2-sulfonamide Hydrochloride], the Emax [1] is reported as 172%, the EC50 [1] is reported as 4050 nM and the “MTECC24 CFHBEC- Amax %” value [2] is reported as 55.0%. It also gave an EC50 [2] of 495 nM.
In the case of `Cc1ccccc1-c1nc(NS(=O)(=O)c2cccc(N3C[C@H](O)[C@@H](N4CCCC4)C3)n2)ccc1C(F)(F)F` [Example 118, 6-((3′S,4'S)-4′-hydroxy-[1,3′-bipyrrolidin]-1′-yl)-N-(6-(o-tolyl)-5-(trifluoromethyl)pyridin-2-yl)pyridine-2-sulfonamide], the Emax [1] is reported as 492%, the EC50 [1] is reported as 2600 nM and the “MTECC24 CFHBEC- Amax %” value [2] is reported as 78.5%. It also gave an EC50 [2] of 11.7 nM.
With `Cc1ccccc1-c1nc(NS(=O)(=O)c2cccc(N3CC[C@@H](N)C3)n2)ccc1C(F)(F)F` [Example 119, (R)-6-(3-aminopyrrolidin-1-yl)-N-(6-(o-tolyl)-5-(trifluoromethyl)pyridin-2-yl)pyridine-2-sulfonamide Hydrochloride] the Emax [1] was 411%, the EC50 [1] was 1830 nM and the “MTECC24 CFHBEC- Amax %” value [2] was 70.2%. It also gave an EC50 [2] of 55.3 nM.
With `Cc1ccccc1-c1nc(NS(=O)(=O)c2cccc(N3CC[C@H](N)C3)n2)ccc1C(F)(F)F` [Example 120, (S)-6-(3-aminopyrrolidin-1-yl)-N-(6-(o-tolyl)-5-(trifluoromethyl)pyridin-2-yl)pyridine-2-sulfonamide Hydrochloride] the Emax [1] was 270%, the EC50 [1] was 2820 nM and the “MTECC24 CFHBEC- Amax %” value [2] was 57.9%. It also gave an EC50 [2] of 37.2 nM.
In the case of `CN[C@@H]1CCN(c2cccc(S(=O)(=O)Nc3ccc(C(F)(F)F)c(-c4ccccc4C)n3)n2)C1` [Example 121, (R)-6-(3-(methylamino)pyrrolidin-1-yl)-N-(6-(o-tolyl)-5-(trifluoromethyl)pyridin-2-yl)pyridine-2-sulfonamide Hydrochloride], the Emax [1] is reported as 308%, the EC50 [1] is reported as 3450 nM and the “MTECC24 CFHBEC- Amax %” value [2] is reported as 79.6%. The EC50 [2] was 164 nM.
In the case of `CN[C@H]1CCN(c2cccc(S(=O)(=O)Nc3ccc(C(F)(F)F)c(-c4ccccc4C)n3)n2)C1` [Example 122, (S)-6-(3-(methylamino)pyrrolidin-1-yl)-N-(6-(o-tolyl)-5-(trifluoromethyl)pyridin-2-yl)pyridine-2-sulfonamide Hydrochloride], the Emax [1] is reported as 385%, the EC50 [1] is reported as 2690 nM and the “MTECC24 CFHBEC- Amax %” value [2] is reported as 81.8%. It also gave an EC50 [2] of 27.1 nM.
For `Cc1ccccc1-c1nc(NS(=O)(=O)c2cccc(N[C@@H]3CCNC3)n2)ccc1C(F)(F)F` [Example 123, (R)-6-(pyrrolidin-3-ylamino)-N-(6-(o-tolyl)-5-(trifluoromethyl)pyridin-2-yl)pyridine-2-sulfonamide Hydrochloride], the Emax [1] was 218%, the EC50 [1] was 3150 nM and the “MTECC24 CFHBEC- Amax %” value [2] was 85.2%. For the same molecule, the EC50 [2] was 238 nM.
For `O=S(=O)(Nc1ccc(Cl)c(-c2ccccc2C(F)(F)F)n1)c1cccc(N[C@H]2COC[C@@H]2O)n1` [Example 125, N-(5-chloro-6-(2-(trifluoromethyl)phenyl)pyridin-2-yl)-6-(((3S,4R)-4-hydroxytetrahydrofuran-3-yl)amino)pyridine-2-sulfonamide], the Emax [1] was 215%, the EC50 [1] was 1940 nM and the “MTECC24 CFHBEC- Amax %” value [2] was 67.5%. The EC50 [2] was 47.5 nM.
In the case of `Cc1ccc(F)cc1-c1nc(NS(=O)(=O)c2cccc(N[C@@H]3COC[C@H]3O)n2)ccc1Cl` [Example 127, N-(5-chloro-6-(5-fluoro-2-methylphenyl)pyridin-2-yl)-6-(((3R,4S)-4-hydroxytetrahydrofuran-3-yl)amino)pyridine-2-sulfonamide], the Emax [1] is reported as 382%, the EC50 [1] is reported as 2320 nM and the “MTECC24 CFHBEC- Amax %” value [2] is reported as 45.4%. The EC50 [2] was 15.7 nM.
`Cc1ccc(F)cc1-c1nc(NS(=O)(=O)c2cccc(N[C@@H]3[C@H](CO)[C@H]4CC[C@@H]3O4)n2)ccc1Cl` [Example 128, N-(5-chloro-6-(5-fluoro-2-methylphenyl)pyridin-2-yl)-6-(((1S,2R,3R,4R)-3-(hydroxymethyl)-7-oxabicyclo[2.2.1]heptan-2-yl)amino)pyridine-2-sulfonamide] was tested, and the Emax [1] was 730%, the EC50 [1] was 2240 nM and the “MTECC24 CFHBEC- Amax %” value [2] was 61.9%. It also gave an EC50 [2] of 5.3 nM.
`Cc1cccc(C)c1-c1nc(NS(=O)(=O)c2cccc(O[C@H]3CC[C@@H](C(=O)O)CC3)n2)ccc1Cl` [Example 129, (1s,4s)-4-((6-(N-(5-chloro-6-(2,6-dimethylphenyl)pyridin-2-yl)sulfamoyl)pyridin-2-yl)oxy)cyclohexane-1-carboxylic Acid] was tested, and the EC50 [1] was 1720 nM, the “MTECC24 CFHBEC- Amax %” value [2] was 54.8% and the EC50 [2] was 19.5 nM.
`Cc1cccc(C)c1-c1nc(NS(=O)(=O)c2cccc(O[C@H]3CC[C@H](C(=O)O)CC3)n2)ccc1Cl` [Example 130, (1r,4r)-4-((6-(N-(5-chloro-6-(2,6-dimethylphenyl)pyridin-2-yl)sulfamoyl)pyridin-2-yl)oxy)cyclohexane-1-carboxylic Acid] was tested, and the Emax [1] was 157%, the EC50 [1] was 2920 nM and the “MTECC24 CFHBEC- Amax %” value [2] was 37.9%. The EC50 [2] was 84.1 nM.
`Cc1cccc(C)c1-c1nc(NS(=O)(=O)c2cccc(N3CCNC(=O)C3)n2)ccc1Cl` [Example 131, N-(5-chloro-6-(2,6-dimethylphenyl)pyridin-2-yl)-6-(3-oxopiperazin-1-yl)pyridine-2-sulfonamide] was tested, and the Emax [1] was 729%, the EC50 [1] was 2140 nM and the “MTECC24 CFHBEC- Amax %” value [2] was 78.4%. It also gave an EC50 [2] of 25 nM.
In the case of `Cc1cccc(C)c1-c1cc(C(F)(F)F)cc(NS(=O)(=O)c2cccc(N3CCNCC3)n2)n1` [Example 133, N-(6-(2,6-dimethylphenyl)-4-(trifluoromethyl)pyridin-2-yl)-6-(piperazin-1-yl)pyridine-2-sulfonamide Hydrochloride], the Emax [1] is reported as 570%, the EC50 [1] is reported as 2030 nM and the “MTECC24 CFHBEC- Amax %” value [2] is reported as 71.2%. For the same molecule, the EC50 [2] was 97.9 nM.
With `Cc1ccc(F)cc1-c1nc(NS(=O)(=O)c2cccc(N3CCN4C[C@@H](F)C[C@@H]4C3)n2)ccc1Cl` [Example 134, N-(5-chloro-6-(5-fluoro-2-methylphenyl)pyridin-2-yl)-6-((7S,8aR)-7-fluorohexahydropyrrolo[1,2-a]pyrazin-2(1H)-yl)pyridine-2-sulfonamide] the Emax [1] was 906%, the EC50 [1] was 1980 nM and the “MTECC24 CFHBEC- Amax %” value [2] was 112.7%. It also gave an EC50 [2] of 19 nM.
`Cc1ccc(F)cc1-c1nc(NS(=O)(=O)c2cccc(N3CCN4C[C@@H](F)CC4[C@@H]3C)n2)ccc1Cl` (stereo partly drawn) [Example 135, N-(5-chloro-6-(5-fluoro-2-methylphenyl)pyridin-2-yl)-6-((1S,7S)-7-fluoro-1-methylhexahydropyrrolo[1,2-a]pyrazin-2(1H)-yl)pyridine-2-sulfonamide] was tested, and the Emax [1] was 804%, the EC50 [1] was 3440 nM and the “MTECC24 CFHBEC- Amax %” value [2] was 95.3%. For the same molecule, the EC50 [2] was 13 nM.
In the case of `Cc1ccccc1-c1nc(NS(=O)(=O)c2cccc(N3CCN4C[C@@H](F)C[C@@H]4C3)n2)ccc1C(F)(F)F` [Example 138, 6-((7S,8aR)-7-fluorohexahydropyrrolo[1,2-a]pyrazin-2(1H)-yl)-N-(6-(o-tolyl)-5-(trifluoromethyl)pyridin-2-yl)pyridine-2-sulfonamide], the Emax [1] is reported as 636%, the EC50 [1] is reported as 681 nM and the “MTECC24 CFHBEC- Amax %” value [2] is reported as 108.4%. It also gave an EC50 [2] of 15.6 nM.
`Cc1c(F)cccc1-c1nc(NS(=O)(=O)c2cccc(N3CCN(C(C)(C)C)CC3)n2)ccc1Cl` [Example 140, 6-(4-(tert-butyl)piperazin-1-yl)-N-(5-chloro-6-(3-fluoro-2-methylphenyl)pyridin-2-yl)pyridine-2-sulfonamide] was tested, and the Emax [1] was 395%, the EC50 [1] was 3480 nM and the “MTECC24 CFHBEC- Amax %” value [2] was 65.3%. For the same molecule, the EC50 [2] was 29.5 nM.

Source: US11066369B2, “N-(pyridin-2-yl)pyridine-sulfonamide derivatives and their use in the treatment of disease” (Novartis AG, priority 2016, dated 2021)
